The source of these data is article PMC4671058, “Heterologous expression of newly identified galectin-8 from sea urchin embryos produces recombinant protein with lactose binding specificity and anti-adhesive activity” (Scientific Reports, 2015).

The experiment has as its target T1, Pl-GAL-8 (Paracentrotus lividus, UniProt A0A0U5C3R9).
T1 construct: gene galectin-8; tags kept; expressed in E. coli BL21(DE3)
T1 sequence (A0A0U5C3R9 1-311): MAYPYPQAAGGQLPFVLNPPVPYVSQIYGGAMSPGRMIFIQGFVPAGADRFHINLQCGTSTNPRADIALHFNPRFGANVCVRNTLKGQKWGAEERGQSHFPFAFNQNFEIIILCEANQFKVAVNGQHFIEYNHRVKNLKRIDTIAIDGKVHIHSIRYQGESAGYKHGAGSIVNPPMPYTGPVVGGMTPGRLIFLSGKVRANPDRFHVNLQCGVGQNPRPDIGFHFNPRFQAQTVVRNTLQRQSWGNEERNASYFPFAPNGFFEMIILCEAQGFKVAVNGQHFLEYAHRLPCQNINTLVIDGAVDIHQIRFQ
Nature of the experiment: inhibition of hemagglutination of human red blood cells. As to conditions: 0.25 uM protein; PBS, room temperature, 40 min; lowest dose tested (1-20 mM). The format is cell-based.

Take `OC[C@H]1O[C@@H](O[C@H]2[C@H](O)[C@@H](O)C(O)O[C@@H]2CO)[C@H](O)[C@@H](O)[C@H]1O` (stereo partly shown) [lactose]: the effective inhibitory concentration was 1 mM.
